# Data: PubChem BioAssay (NCI)
#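 GI50 marks 50% less growth. The concentration for full growth arrest is given as TGI.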
# Tests used:
# Experiment in all cases: NCI tumour cell line growth inhibition, 384-well format
# HOP-62 NSCLC = tested on: HOP-62 NSCLC
# SN12C renal = tested on: SN12C renal
# HT29 colon = tested on: HT29 colon
# UACC-257 melanoma = tested on: UACC-257 melanoma
# HS 578T breast = tested on: HS 578T breast
# TK-10 renal = tested on: TK-10 renal
# COLO 205 colon = tested on: COLO 205 colon
# CCRF-CEM leukemia = tested on: CCRF-CEM leukemia
# OVCAR-4 ovarian = tested on: OVCAR-4 ovarian
# SK-MEL-28 melanoma = tested on: SK-MEL-28 melanoma
# MOLT-4 leukemia = tested on: MOLT-4 leukemia
# SNB-19 CNS = tested on: SNB-19 CNS
# HL-60(TB) leukemia = tested on: HL-60(TB) leukemia
# KM12 colon = tested on: KM12 colon
# 786-0 renal = tested on: 786-0 renal
# CAKI-1 renal = tested on: CAKI-1 renal
# NCI-H460 NSCLC = tested on: NCI-H460 NSCLC
# HOP-92 NSCLC = tested on: HOP-92 NSCLC
# SF-539 CNS = tested on: SF-539 CNS
# SR leukemia = tested on: SR leukemia
# SK-MEL-5 melanoma = tested on: SK-MEL-5 melanoma
# IGROV1 ovarian = tested on: IGROV1 ovarian
# HCT-116 colon = tested on: HCT-116 colon
# OVCAR-8 ovarian = tested on: OVCAR-8 ovarian
# LOX IMVI melanoma = tested on: LOX IMVI melanoma
# MDA-MB-231 breast = tested on: MDA-MB-231 breast
# U251 glioblastoma = tested on: U251 glioblastoma
# MDA-MB-468 breast = tested on: MDA-MB-468 breast
# A549 NSCLC = tested on: A549 NSCLC
compound,measurement,setting,value
Nc1ncccc1-c1nc2ccc(-c3ccccc3)nc2n1-c1ccc(C2(N)CCC2)cc1,GI50,HOP-62 NSCLC,1610 nM
same,TGI,HOP-62 NSCLC,3.02 µM
same,GI50,SN12C renal,2390 nM
same,TGI,SN12C renal,14.4 µM
same,GI50,HT29 colon,1100 nM
same,TGI,HT29 colon,2340 nM
same,GI50,UACC-257 melanoma,1460 nM
same,TGI,UACC-257 melanoma,2770 nM
same,GI50,HS 578T breast,1030 nM
same,TGI,HS 578T breast,2200 nM
same,GI50,TK-10 renal,1240 nM
same,TGI,TK-10 renal,2600 nM
same,GI50,COLO 205 colon,1030 nM
same,TGI,COLO 205 colon,2210 nM
same,GI50,CCRF-CEM leukemia,285 nM
same,TGI,CCRF-CEM leukemia,1760 nM
same,GI50,OVCAR-4 ovarian,3.62 µM
same,TGI,OVCAR-4 ovarian,12.1 µM
same,GI50,SK-MEL-28 melanoma,1220 nM
same,TGI,SK-MEL-28 melanoma,2460 nM
same,GI50,MOLT-4 leukemia,154 nM
same,TGI,MOLT-4 leukemia,1210 nM
same,GI50,SNB-19 CNS,1760 nM
same,TGI,SNB-19 CNS,3.17 µM
same,GI50,HL-60(TB) leukemia,1820 nM
same,TGI,HL-60(TB) leukemia,3.21 µM
same,GI50,KM12 colon,1540 nM
same,TGI,KM12 colon,3.27 µM
same,GI50,786-0 renal,1040 nM
same,TGI,786-0 renal,2220 nM
same,GI50,CAKI-1 renal,1050 nM
same,TGI,CAKI-1 renal,2270 nM
same,GI50,NCI-H460 NSCLC,359 nM
same,TGI,NCI-H460 NSCLC,1820 nM
same,GI50,HOP-92 NSCLC,1400 nM
same,TGI,HOP-92 NSCLC,3.12 µM
same,GI50,SF-539 CNS,1160 nM
same,TGI,SF-539 CNS,2380 nM
same,GI50,SR leukemia,96.6 nM
same,TGI,SR leukemia,1260 nM
same,GI50,SK-MEL-5 melanoma,1450 nM
same,TGI,SK-MEL-5 melanoma,2770 nM
same,GI50,IGROV1 ovarian,187 nM
same,TGI,IGROV1 ovarian,1810 nM
same,GI50,HCT-116 colon,1500 nM
same,TGI,HCT-116 colon,2830 nM
same,GI50,OVCAR-8 ovarian,1430 nM
same,TGI,OVCAR-8 ovarian,2750 nM
same,GI50,LOX IMVI melanoma,1740 nM
same,TGI,LOX IMVI melanoma,3.11 µM
same,GI50,MDA-MB-231 breast,1430 nM
same,TGI,MDA-MB-231 breast,2790 nM
same,GI50,U251 glioblastoma,1460 nM
same,TGI,U251 glioblastoma,2770 nM
same,GI50,MDA-MB-468 breast,226 nM
same,TGI,MDA-MB-468 breast,1420 nM
same,GI50,A549 NSCLC,1760 nM
same,TGI,A549 NSCLC,4.17 µM
